Reference: ChEMBL document CHEMBL3856230, “Structure-Activity Relationships of Di-2-pyridylketone, 2-Benzoylpyridine, and 2-Acetylpyridine Thiosemicarbazones for Overcoming Pgp-Mediated Drug Resistance” (J Med Chem, 2016)
Calls of active or inactive are those of the source. No cut-off for these calls is given here.

Key:
[1] = species: Homo sapiens; test: Inhibition of P-gp (unknown origin) in P-gp enriched membranes assessed as […] at 100 uM in presence of Mg2-ATP after 40 mins by luciferase reporter gen assay relative to control; type: cell membranes
[2] = test system: KB-V1; test: Induction of oxidative stress-dependent lysosomal membrane permeabilization in human KBV1 cells over expressing P-gp assessed as decrease in cathepsin D and LAMP2 lysosomal colocalization at 10 uM after 24 hrs by TexasRed staining based immunofluorescence microscopic analysis; type: functional, cell-based
[3] = test system: KB-V1; test: Induction of copper-dependent lysosomal membrane permeabilization in human KBV1 cells over expressing P-gp assessed as decrease in cathepsin D and LAMP2 lysosomal colocalization at 10 uM after 24 hrs by TexasRed staining based immunofluorescence microscopic analysis; type: functional, cell-based
[4] = test system: KBV1; test: Induction of P-gp-mediated lysosomal membrane permeabilization in human KBV1 cells over expressing P-gp assessed as increase in LAMP2 fluorescence at 10 uM after 24 hrs by TexasRed staining based immunofluorescence microscopic analysis; type: cell-based
[5] = species: Homo sapiens; test: Substrate activity at P-gp (unknown origin) in P-gp enriched membranes assessed as increase in ATPase activity at 50 uM in presence of Mg2-ATP after 40 mins by luciferase reporter gen assay relative to control; type: cell membranes
[6] = test system: KB 3-1; test: (§1) Antiproliferative activity against human KB3-1 cells after 24 hrs in presence of P-gp inhibitor elacridar by MTT assay; type: functional, cell-based
[7] = test system: KB 3-1; test: (§2) Antiproliferative activity against human KB3-1 cells after 24 hrs by MTT assay; type: functional, cell-based
[8] = test system: KBV1; test: Induction of P-gp-mediated lysosomal membrane permeabilization in human KBV1 cells over expressing P-gp assessed as cathepsin D release from lysosome to cytosol at 10 uM after 24 hrs by TexasRed staining based immunofluorescence microscopic analysis; type: cell-based
[9] = test system: KBV1; test: Induction of P-gp-mediated lysosomal membrane permeabilization in human KBV1 cells over expressing P-gp assessed as increase in LAMP2 fluorescence at 25 uM after 24 hrs by TexasRed staining based immunofluorescence microscopic analysis; type: cell-based
[10] = test system: KB-V1; test: Induction of oxidative stress-dependent lysosomal membrane permeabilization in human KBV1 cells over expressing P-gp assessed as decrease in cathepsin D and LAMP2 lysosomal colocalization at 25 uM after 24 hrs by TexasRed staining based immunofluorescence microscopic analysis; type: functional, cell-based
[11] = Selectivity ratio of IC50 for human KB31 cells to IC50 for human KBV1 cells over expressing P-gp; type: functional
[12] = test system: KBV1; test: Induction of P-gp-mediated lysosomal membrane permeabilization in human KBV1 cells over expressing P-gp assessed as cathepsin D release from lysosome to cytosol at 25 uM after 24 hrs by TexasRed staining based immunofluorescence microscopic analysis; type: cell-based
[13] = test system: KB-V1; test: Induction of copper-dependent lysosomal membrane permeabilization in human KBV1 cells over expressing P-gp assessed as decrease in cathepsin D and LAMP2 lysosomal colocalization at 25 uM after 24 hrs by TexasRed staining based immunofluorescence microscopic analysis; type: functional, cell-based
[14] = test system: KB-V1; test: (§3) Antiproliferative activity against human KBV1 cells over expressing P-gp after 24 hrs in presence of P-gp inhibitor elacridar by MTT assay; type: functional, cell-based
[15] = as §1; type: functional, cell-based; conditions: KB 3-1, 24 h
[16] = Antiproliferative activity against human KBV1 cells over expressing P-gp after 24 hrs by MTT assay; type: functional, cell-based; conditions: KB-V1, 24 h
[17] = as §2; type: functional, cell-based; conditions: KB 3-1, 24 h
[18] = as §3; type: functional, cell-based; conditions: KB-V1, 24 h

## SODIUM ORTHOVANAD
[1]
  fold change (FC): 11.9

## CN(C)C(=S)NN=C(c1ccccn1)c1ccccn1
[2]
  Activity: Active
[3]
  Activity: Active
[4]
  Activity: Active
[5]
  fold change (FC): 6.6
[6]
  Activity: Active
[7]
  Activity: Active
[8]
  Activity: Active

## CN(C)C(=S)N/N=C(/c1ccccc1)c1ccccn1
[9]
  Activity: Active
[10]
  Activity: Active
[5]
  fold change (FC): 7.9
[6]
  Activity: Active
[11]
  Ratio IC50: 13.2
[12]
  Activity: Active
[13]
  Activity: Active
[7]
  Activity: Active

## C/C(=N/NC(=S)N(C)C)c1ccccn1
[5]
  fold change (FC): 5.1
[6]
  Activity: Active
[11]
  Ratio IC50: 2.1
[7]
  Activity: Active
[14]
  Activity: Active

## CN(/N=C(\c1ccccc1)c1ccccn1)C(N)=S
[5]
  fold change (FC): 5.2
[15]
  IC50: > 800 µM
[16]
  IC50: > 800 µM
[17]
  IC50: > 800 µM
[18]
  IC50: > 800 µM

## NC(=S)N/N=C/c1ncccc1N [TRIAPINE]
[5]
  fold change (FC): 4.6
[15]
  IC50: > 800 µM
[16]
  IC50: > 800 µM
[17]
  IC50: > 800 µM
[18]
  IC50: > 800 µM

## CN(C(=S)NN=C(c1ccccn1)c1ccccn1)C1CCCCC1
[9]
  Activity: Active
[10]
  Activity: Active
[5]
  fold change (FC): 7.4
[6]
  Activity: Active
[11]
  Ratio IC50: 8.1
[12]
  Activity: Active
[13]
  Activity: Active
[7]
  Activity: Active
